# US20130030049A1, “METHODS OF TREATING DERMATOLOGICAL DISORDERS OR CONDITIONS” (Dermira (Canada), Inc., priority 2006, published 2013)
# Like-named read-outs stand apart in the source and are kept apart here.
# Legend:
# [1] = tested on: SZ95 sebocytes; test: Inhibition of lipid synthesis in AA-stimulated SZ95 sebocytes (Nile Red staining); type: cell-based, human
# Procedure: (§1) The immortalized human sebocyte cell line, SZ95, was maintained in culture as described in Zouboulis, C. C. et al., J. Invest. Dermatol. (1999), Vol. 113, pp. 1011-1020. Lipid synthesis was stimulated by treating SZ95 cells with arachidonic acid (AA). For measurement of lipid production and lipid inhibition studies, test compounds were dissolved in dimethylsulfoxide (DMSO) and added at the desired concentration in 96-well microtiter plates. The cells were then cultured for up to 72 hours before the plates were washed 3 times with PBS and a final volume of 200 μL PBS/well was added. To stain cell neutral lipids, 5 μL of Nile Red solution (0.2 mg/mL dissolved in DMSO) was added to each well and incubated for a minimum of 60 minutes. Plate fluorescence was then quantified using a fluorometric plate reader (excitation wavelength: 490 nm; emission wavelength: 590 nm). Inhibition of lipid levels by the test compound was expressed as the % reduction of the fluorescence of AA-stimulated cells in the presence of the test compound relative to the values obtained for the unstimulated control cells. Cell viability was measured by utilizing the conversion of a tetrazolium reagent (MTS) to a colored-formazan product by live cells. For these assays, the test compound was dissolved in dimethylsulfoxide (DMSO) and added at the desired concentration to cells seeded into 96-well plates. The cells were cultured for 48 hours in the presence of the test compound before the plates were washed 3 times with PBS. A final volume of 100 μL of culture medium per well was added. Twenty μL of MTS solution (0.2 mg/mL in sterile PBS) was added to each well and incubated for a minimum of 60 minutes until the desired optical density was reached. The color development of the wells was measured using a plate reader at an absorbance of […]. Effect on cell viability by the test compound was expressed as the % reduction of the absorbance for AA-stimulated cells in the presence of the test compound relative to the values obtained for the untreated control cells.
# [2] = tested on: PBMC; test: Viability of activated PBMC (MTS assay); type: cell-based, human
# Procedure: (§2) As described herein, the inhibitory effect of TOFA on fatty acid synthesis is well known. However, the potential influence of TOFA on cellular production of inflammatory mediators or immune cell proliferation is unreported. To address this question, PBMC were isolated from different donors by density gradient centrifugation. Different amounts of TOFA were added to PBMC cultures in the presence of two different stimuli sets. One activating stimulus was phytohemagglutinin (PHA), a plant-derived mitogen that stimulates proliferation and cytokine synthesis by T lymphocytes. These cell preparations were also activated using a combination of interferon-γ (IFN-γ) and lipopolysaccharide (LPS) to stimulate cytokine production by the monocyte fraction within PBMC preparations. Following a 48 hour culture period, cell supernatants were obtained for simultaneous determination of cytokine levels using a flow cytometry-based quantification method. […] Cell viability was assessed using a colorimetric assay based on the conversion of 3-(4,5-dimethylthiazol-2-yl)-5-(3-carboxymethoxyphenyl)-2-(4-sulfophenyl)-2H-tetrazolium, inner salt (MTS) into a soluble formazan product by mitochondrial dehydrogenase of viable cells. Cell proliferation was determined by adding ^3H-thymidine to the cultures and determining its level of incorporation into DNA using scintillation counting.
# [3] = tested on: 3T3-L1 cells; test: 3T3-L1 adipocyte differentiation and lipid accumulation (Oil Red O); type: cell-based; conditions: mouse 3T3-L1 adipocytes, FIGS. 8-10
# Procedure: Mouse 3T3-L1 preadipocytes (American Type Culture Collection) were passaged and maintained in Dulbecco's modified Eagles Medium (DMEM) supplemented with 10% fetal calf serum (FCS), 1 mM sodium pyruvate, penicillin (100 U/ml)/streptomycin (100 μg/ml) and 4 mM Glutamax (Gibco/Life Technologies). To initiate adipocyte differentiation, 3T3-L1 cells were plated at confluency into culture plates or dishes and grown in supplemented DMEM for two days post-confluency. Initiation medium consisted of DMEM with 0.5 mM 3-isobutyl-1-methylxanthine, 1 μM dexamethasone and human insulin at 10 μg/ml. Progression medium contained insulin (10 μg/ml) which replaced the initiation medium after 48-72 hours. Cellular lipid was imaged by Oil Red O staining as described in Example 2 for LNCaP cells.
# [4] = tested on: IL-8; test: Supernatant IL-8 level of activated PBMC (flow cytometry-based); type: cell-based; conditions: Homo sapiens; PBMC stimulated with IFN-γ plus LPS, 10% FBS, 48 hours; read-out: IL-8 supernatant level IC50 (estimated)
# Procedure: as §2
# [5] = tested on: TNF-α; test: Supernatant TNF-α level of activated PBMC (flow cytometry-based); type: cell-based; conditions: Homo sapiens, 48 h, PBMC stimulated with IFN-γ plus LPS, 10% FBS, read-out: TNF-α supernatant level IC50 (estimated)
# Procedure: as §2
# [6] = tested on: LNCaP cells; test: Lipid accumulation in DHT-stimulated LNCaP cells (Nile Red flow cytometry, Oil Red O); type: cell-based, human
# Procedure: The human prostate LNCaP adenocarcinoma cell line was obtained from American Type Culture Collection. Cells were maintained in RPMI 1640 medium containing 10% fetal calf serum (FCS), 4 mM Glutamax, 1 mM sodium pyruvate, 1 mM HEPES, penicillin (100 U/mL) and streptomycin (100 μg/mL). For experiments, approximately 10,000 cells/well were plated in 6-well tissue culture plates in RPMI 1640 10% FBS for 72 hours. To minimize potential serum androgen effects, medium containing 5% charcoal/dextran-stripped FCS was added for 72 hours. Lipid synthesis was then stimulated by addition of the androgen dihydrotestosterone (DHT) at 50 nM. TOFA was solubilized in DMSO and added at various concentrations in RPMI 1640 containing 5% charcoal/dextran-treated. Cells were incubated in the presence of these factors for 96 hours at 37° C. Lipid accumulation was subsequently quantified by Nile Red staining and flow cytometric analysis. The flow cytometer laser excitation was set at 488 nm and Nile Red fluorescence collected through a 585 nm band pass filter. A total of 10,000 events were collected per sample. […] Cell Nile Red fluorescence was also visualized through a fluorescence microscope.
# Cellular lipid expression was also determined using Oil Red O staining. […] Lipid accumulation was visualized by fluorescence microscopy.
# [7] = tested on: IL-1β; test: Supernatant IL-1β level of activated PBMC (flow cytometry-based); type: cell-based; conditions: Homo sapiens; PBMC stimulated with IFN-γ plus LPS, 10% FBS, 48 hours; read-out: IL-1β supernatant level IC50 (estimated)
# Procedure: as §2
# [8] = tested on: IL-6; test: Supernatant IL-6 level of activated PBMC (flow cytometry-based); type: cell-based; conditions: Homo sapiens; PBMC stimulated with IFN-γ plus LPS, 10% FBS, 48 hours; read-out: IL-6 supernatant level IC50 (estimated)
# Procedure: as §2
# [9] = tested on: SZ95 sebocytes; test: SZ95 sebocyte viability (MTS assay); type: cell-based, human; conditions: AA-stimulated SZ95 cells, FIG. 2B
# Procedure: as §1, with “To stain cell neutral lipids, 5 μL of Nile Red solution (0.2 mg/mL dissolved in DMSO) was added to each well and incubated for a minimum of 60 minutes.” left out, “For these assays, the test compound was dissolved in dimethylsulfoxide (DMSO) and added at the desired concentration to cells seeded into 96-well plates. The cells were cultured for 48 hours in the presence of the test compound before the plates were washed 3 times with PBS. A final volume of 100 μL of culture medium per well was added. Twenty μL of MTS solution (0.2 mg/mL in sterile PBS) was added to each well and incubated for a minimum of 60 minutes until the desired optical density was reached.” left out
# [10] = oral, moderate to severe acne patients, at 12 weeks; cited from earlier work
structure (smiles),measurement,setting,value
"CC1=C(/C=C/C(C)=C/C=C/C(C)=C\C(=O)O)C(C)(C)CCC1 [13-cis retinoic acid, 13-cis-retinoic acid, reference compound]",IC50,"[1]; SZ95 cells, short term cultures, read-out: IC50 against lipid synthesis",~40 µM
"CCCCCCCCCCCCCCOc1ccc(C(=O)O)o1 [TOFA, 5-(tetradecyloxy)-2-furancarboxylic acid]",IC50,"[2]; Homo sapiens, PBMC stimulated with PHA (2 μg/mL), 10% FBS, 48 hours, one row per experiment (donor)",> 90 µM
same,effect on the viability of PBMC,[2]; PBMC stimulated with PHA or IFN-γ plus LPS,no effect on the viability
same,effect on cellular differentiation and lipid accumulation,[3],dose-dependent effects on cellular differentiation and lipid accumulation
same,IC50,[4],> 90 µM
same,IC50,[5],> 90 µM
same,lipid levels by Oil Red O staining and fluorescence microscopy,[6]; FIG. 11,dose dependent reduction in lipid levels
same,reduction of lipid levels (flow cytometry/fluorescence),"[6]; TOFA at 25 μM, FIG. 12",> 50%
same,IC50,[7],> 90 µM
same,IC50,[8],> 90 µM
same,inhibition of lipid synthesis observed by fluorescence microscopy,"[1]; AA-stimulated SZ95 cells, FIG. 1",dose-dependent inhibition of lipid synthesis
same,IC50,"[1]; Homo sapiens, AA-stimulated SZ95 cells, FIG. 2A, read-out: estimated IC50 upon lipid synthesis (nile red fluorescence intensity)",~3 µM
same,TOFA concentration with viability loss,[9],greater than 50 μM
CC(c1cc2ccccc2s1)N(O)C(N)=O (stereo not shown) [Zileuton],reduction in inflammatory lesions,[10],71%
same,reduction of sebum lipids,[10],65%
"CCCCC/C=C\C/C=C\C/C=C\C/C=C\CCCC(=O)O [arachidonic acid (AA), arachidonic acid, reference compound]",increase of SZ95 sebocyte lipid levels,[1]; 96-well microtiter plate format,approximately 5 fold
